Four compounds from US5091398A, “Substituted 1,2,3,4-oxatriazolium-5-olates, a process for their preparation and their use” (Cassella Aktiengellschaft, priority 1989, dated 1992) can be followed below.

Like-named read-outs stand apart in the source and are kept apart here. Bounds are passed on as bounds.

This test concerns pulmonary artery of the guinea pig. Briefly: relaxing effect on spiral strips of the pulmonary artery of the guinea pig (modified method of Godfraind and Kaba and of Schuman et al.). The note with it: strips depolarised with 40 mmol/l potassium in calcium-free Tyrode solution, contraction by 0.5 mmol/l CaCl2, cumulative addition, mean value of 4 to 6 vessel strips, read-out: IC50 (concentration of the test substance which inhibits the contraction by 50%) (converted). As for the experimental part:
The pharmacological effect of the compounds of the formula I was determined according to a modified method of Godfraind and Kaba (Arch. Int. Phamacodyn. Ther. 196, (Suppl) 35 to 49, 1972) and of Schuman et al. (Naunyn-Schmiedeberg's Arch. Phamacol. 289, 409 to 418, 1975). Spiral strips of the pulmonary artery of the guinea pig are depolarised with 40 mmol/1 of potassium after equilibration in calcium-free Tyrode solution. An addition of 0.5 mmol/1 of CaCl2 then induces a contraction. The relaxing effect of the test substance is determined by cumulative addition in 1/2 log 10 stepped concentrations. The concentration of the test substance which inhibits the contraction by 50% (=IC50, mol/1) is determined from the concentration-effect curve (abscissa: -log mol/1 of test substance, ordinate: percentage inhibition of the maximum contraction, mean value of 4 to 6 vessel strips).

Consider `CCC(C)(C)[n+]1noc([O-])n1` [Example 1, 3-tert-Pentyl-1,2,3,4-oxatriazolium-5-olate], for which the IC50 (Cavia porcellus) was 3000 nM.
As for `CC(C)(C)NC(=O)C(C)(C)[n+]1noc([O-])n1` [Example 4, 3-(1-tert-Butylaminocarbonyl-1-methylethyl)-1,2,3,4-oxatriazolium-5-olate], where the note is “Cavia porcellus”, the IC50 was 60000 nM.
On the same count and under the same terms, next, `CCCC(C)(C)[n+]1noc([O-])n1` [Example 5, 3-(2-Methylpent-2-yl)-1,2,3,4-oxatriazolium-5-olate]: 600 nM.
In the case of `CCOC(=O)[N-]c1cn(N2CCOCC2)n[o+]1` [Molsidomine, N-ethoxycarbonyl-3-morpholinosydnoneimine, reference compound], the IC50 is > 100000 nM.
